The source made the active and inactive calls.
How the values were obtained:
[1] = system: HEK293; experiment: HEK cell cytotoxicity by LDH release, dose response, cytotoxicity control for IDE activator project, fluorescence, HEK cells (AID 588440); type: functional, cell-based; conditions: Homo sapiens;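 note: cytotoxicity by LDH release measuring loss of membrane integrity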
[2] = target: T1, Insulin-degrading enzyme (Homo sapiens, UniProt P14735); experiment: activators of endogenous IDE in HEK cells, dose response, cell-based, fluorescence polarization (AID 588439); type: functional
T1 sequence (P14735 whole entry): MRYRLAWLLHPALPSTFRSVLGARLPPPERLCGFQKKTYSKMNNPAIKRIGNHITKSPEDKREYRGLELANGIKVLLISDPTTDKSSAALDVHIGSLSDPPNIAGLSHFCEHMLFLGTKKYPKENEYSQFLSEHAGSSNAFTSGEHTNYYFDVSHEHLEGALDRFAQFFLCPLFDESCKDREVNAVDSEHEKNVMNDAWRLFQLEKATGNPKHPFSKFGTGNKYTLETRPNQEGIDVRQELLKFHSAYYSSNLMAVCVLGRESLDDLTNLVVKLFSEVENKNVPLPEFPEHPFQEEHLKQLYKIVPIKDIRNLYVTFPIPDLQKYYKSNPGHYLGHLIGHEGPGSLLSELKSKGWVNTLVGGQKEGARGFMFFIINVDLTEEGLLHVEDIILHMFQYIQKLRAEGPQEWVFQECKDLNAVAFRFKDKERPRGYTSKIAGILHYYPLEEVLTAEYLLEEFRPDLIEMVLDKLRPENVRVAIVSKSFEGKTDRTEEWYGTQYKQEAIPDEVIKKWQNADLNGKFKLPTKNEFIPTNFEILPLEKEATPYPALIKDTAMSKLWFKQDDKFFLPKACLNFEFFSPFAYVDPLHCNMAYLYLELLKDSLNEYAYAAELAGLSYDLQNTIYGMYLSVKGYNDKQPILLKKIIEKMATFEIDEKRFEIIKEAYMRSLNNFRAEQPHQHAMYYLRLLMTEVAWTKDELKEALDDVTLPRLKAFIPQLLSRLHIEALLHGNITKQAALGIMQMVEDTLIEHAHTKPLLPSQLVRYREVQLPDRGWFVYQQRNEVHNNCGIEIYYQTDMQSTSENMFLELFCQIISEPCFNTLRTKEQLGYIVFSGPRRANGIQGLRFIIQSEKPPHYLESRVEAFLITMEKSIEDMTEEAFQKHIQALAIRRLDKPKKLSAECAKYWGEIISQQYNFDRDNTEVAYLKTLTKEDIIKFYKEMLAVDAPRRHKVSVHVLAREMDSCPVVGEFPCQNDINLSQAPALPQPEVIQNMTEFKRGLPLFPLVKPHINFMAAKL

[3] = system: HEK293; experiment: optical interference in Abeta FP readout, dose response, artefact control for IDE activator project, biochemical, fluorescence polarization (AID 588442); type: functional, cell-based; conditions: Homo sapiens
[4] = target: T2, Apoptotic protease-activating factor 1 (Homo sapiens, UniProt O14727); type: functional;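 for EC50 Mean: caspase-3 cleavage of fluorogenic Rh110 DEVD substrate downstream of apoptosome activation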
T2 sequence (O14727 whole entry): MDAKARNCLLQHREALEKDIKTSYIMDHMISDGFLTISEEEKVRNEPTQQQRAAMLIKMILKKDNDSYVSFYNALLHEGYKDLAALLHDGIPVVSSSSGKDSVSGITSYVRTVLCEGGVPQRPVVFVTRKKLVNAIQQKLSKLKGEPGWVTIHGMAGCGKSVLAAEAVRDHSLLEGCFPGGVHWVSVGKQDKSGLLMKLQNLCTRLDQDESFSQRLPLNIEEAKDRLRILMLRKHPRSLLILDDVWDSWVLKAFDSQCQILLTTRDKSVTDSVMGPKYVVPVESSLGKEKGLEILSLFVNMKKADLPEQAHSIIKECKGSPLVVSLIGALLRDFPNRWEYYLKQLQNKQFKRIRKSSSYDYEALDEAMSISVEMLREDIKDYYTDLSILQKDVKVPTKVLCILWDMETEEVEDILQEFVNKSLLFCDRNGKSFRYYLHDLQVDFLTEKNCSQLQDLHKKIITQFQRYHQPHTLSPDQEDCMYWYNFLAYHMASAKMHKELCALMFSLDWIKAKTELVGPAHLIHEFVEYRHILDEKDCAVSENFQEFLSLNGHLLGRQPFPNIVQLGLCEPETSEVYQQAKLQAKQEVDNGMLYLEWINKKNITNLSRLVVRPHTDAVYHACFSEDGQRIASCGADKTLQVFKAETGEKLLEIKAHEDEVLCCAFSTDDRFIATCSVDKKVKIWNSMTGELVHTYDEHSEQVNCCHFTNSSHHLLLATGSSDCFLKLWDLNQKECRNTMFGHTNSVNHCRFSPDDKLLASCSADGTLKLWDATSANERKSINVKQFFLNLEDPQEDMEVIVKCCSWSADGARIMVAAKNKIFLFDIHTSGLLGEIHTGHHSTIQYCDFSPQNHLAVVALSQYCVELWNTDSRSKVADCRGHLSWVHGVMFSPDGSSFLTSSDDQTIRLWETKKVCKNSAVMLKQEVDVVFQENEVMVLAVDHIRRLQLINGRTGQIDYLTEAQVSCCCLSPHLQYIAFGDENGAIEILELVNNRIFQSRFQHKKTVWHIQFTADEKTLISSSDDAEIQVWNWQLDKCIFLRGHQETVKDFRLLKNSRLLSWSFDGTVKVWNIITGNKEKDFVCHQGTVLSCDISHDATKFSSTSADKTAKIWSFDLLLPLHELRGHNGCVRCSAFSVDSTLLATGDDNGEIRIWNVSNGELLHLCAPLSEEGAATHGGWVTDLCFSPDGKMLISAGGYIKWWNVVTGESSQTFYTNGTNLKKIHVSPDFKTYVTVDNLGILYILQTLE

[5] = target: T1, Insulin-degrading enzyme; experiment: activators of recombinant IDE enzyme, dose response, counter-screen for IDE activator project, biochemical, fluorescence polarization (AID 588681)
[6] = target: Melanocortin receptor 4 (Homo sapiens, UniProt P32245); experiment: MC4R antagonist potency on cAMP, dose response, cell-based, TR-FRET, biased antagonists (AID 602298); type: functional;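 note: antagonist potency against agonist-stimulated cAMP production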
[7] = nonselective inhibitors of cellular cAMP signaling, dose response, counter-screen for MC4R biased antagonist project, cell-based, TR-FRET cAMP detection (AID 602305); type: functional;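 note: U2OS cells stimulated with forskolin near its EC80 as the cAMP inducer; potency is for inhibition of forskolin-stimulated cAMP signaling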
[8] = target: Serine/threonine-protein kinase pim-1 (Homo sapiens, UniProt P11309); type: functional
[9] = target: Mitogen-activated protein kinase kinase kinase kinase 4 (Homo sapiens, UniProt O95819); type: functional
[10] = target: Dual specificity protein kinase CLK4 (Homo sapiens, UniProt Q9HAZ1); type: functional
[11] = target: cAMP-dependent protein kinase catalytic subunit alpha (Homo sapiens, UniProt P17612); type: functional
[12] = target: MAP kinase-interacting serine/threonine-protein kinase 2 (Homo sapiens, UniProt Q9HBH9); type: functional
[13] = target: Homeodomain-interacting protein kinase 2 (Homo sapiens, UniProt Q9H2X6); type: functional;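 note: measured within a kinome-wide kinase profiling panel, HIPK2 being one panel member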
[14] = target: Glycogen synthase kinase-3 beta (Homo sapiens, UniProt P49841); type: functional;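 note: value comes from a broad kinome profiling panel, with GSK3B as the panel member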
[15] = target: T3, Interleukin-1 receptor-associated kinase 4 (Homo sapiens, UniProt Q9NWZ3); type: functional
T3 sequence (Q9NWZ3 whole entry): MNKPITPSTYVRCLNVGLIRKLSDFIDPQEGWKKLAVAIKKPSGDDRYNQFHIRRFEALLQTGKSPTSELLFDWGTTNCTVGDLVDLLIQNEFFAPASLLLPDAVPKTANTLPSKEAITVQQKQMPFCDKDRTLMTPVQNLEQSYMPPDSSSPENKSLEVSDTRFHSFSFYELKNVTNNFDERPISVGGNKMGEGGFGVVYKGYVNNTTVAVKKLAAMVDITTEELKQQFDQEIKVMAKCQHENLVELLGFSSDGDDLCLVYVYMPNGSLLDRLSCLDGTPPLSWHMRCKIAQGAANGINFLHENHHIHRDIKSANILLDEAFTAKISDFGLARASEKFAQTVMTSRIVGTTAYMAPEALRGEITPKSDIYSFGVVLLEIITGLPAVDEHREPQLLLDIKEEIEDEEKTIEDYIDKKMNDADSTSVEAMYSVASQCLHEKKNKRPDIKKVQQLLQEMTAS

[16] = target: Cell division cycle 7-related protein kinase (Homo sapiens, UniProt O00311); type: functional;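 note: value obtained from a kinome-wide kinase panel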
[17] = target: T2, Apoptotic protease-activating factor 1; experiment: SAR analysis of small molecule Activators of Apaf-1 in a Fluorescent assay.; type: functional; conditions: read-out: EC50_Mean
[18] = A cytotoxicity screen of small molecule inhibitors of the PhoP region in Salmonella typhi identified in the primary screen. [Related pubchem assays: 1850, 1864, 1985 ]; type: functional
[19] = target: T4, High affinity choline transporter 1 (Homo sapiens, UniProt Q9GZV3); experiment: CHT inhibitors, dose response, cell-based, 10-point CRC, membrane potential dye (AID 588401); type: functional;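 note: membrane potential dye fluorescence of choline-evoked depolarization via CHT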
T4 sequence (Q9GZV3 whole entry): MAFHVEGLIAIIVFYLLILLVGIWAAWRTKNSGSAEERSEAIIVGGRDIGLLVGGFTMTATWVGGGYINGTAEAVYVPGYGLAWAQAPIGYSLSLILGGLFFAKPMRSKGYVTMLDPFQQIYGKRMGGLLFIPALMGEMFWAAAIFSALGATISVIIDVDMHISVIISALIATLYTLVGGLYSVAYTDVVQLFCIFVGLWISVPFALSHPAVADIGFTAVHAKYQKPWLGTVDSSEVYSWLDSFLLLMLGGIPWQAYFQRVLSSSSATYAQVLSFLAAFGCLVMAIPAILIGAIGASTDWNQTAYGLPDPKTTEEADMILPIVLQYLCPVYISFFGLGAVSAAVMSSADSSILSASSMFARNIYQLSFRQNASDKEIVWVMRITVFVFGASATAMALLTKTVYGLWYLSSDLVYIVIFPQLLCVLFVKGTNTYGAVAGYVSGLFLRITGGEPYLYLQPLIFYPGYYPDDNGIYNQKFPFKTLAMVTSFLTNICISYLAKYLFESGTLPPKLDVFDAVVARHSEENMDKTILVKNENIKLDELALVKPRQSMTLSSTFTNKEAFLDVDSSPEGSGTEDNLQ

[20] = target: T4, High affinity choline transporter 1; experiment: CHT inhibitors, dose response, cell-based, 5-point CRC, membrane potential dye (AID 504840); type: functional
[21] = target: Prothrombin (Bos taurus, UniProt P00735); experiment: thrombin inhibition, dose response, biochemical, fluorescence polarization, uHTS hits (AID 602369); type: functional
[22] = target: 26S proteasome non-ATPase regulatory subunit 14 (Homo sapiens, UniProt O00487); experiment: inhibition of proteasome subunit RPN11 – biochemical, fluorescence polarization, uHTS hits, confirmation (AID 602368); type: functional
[23] = target: T5, Carboxy-terminal domain RNA polymerase II polypeptide A small phosphatase 1 (Homo sapiens, UniProt Q9GZU7); experiment: inhibitors of CTDSP1, concentration-response testing, biochemical assay, absorbance-based, actives from ultra-high-throughput screening (AID 540297); type: functional
T5 sequence (Q9GZU7 whole entry): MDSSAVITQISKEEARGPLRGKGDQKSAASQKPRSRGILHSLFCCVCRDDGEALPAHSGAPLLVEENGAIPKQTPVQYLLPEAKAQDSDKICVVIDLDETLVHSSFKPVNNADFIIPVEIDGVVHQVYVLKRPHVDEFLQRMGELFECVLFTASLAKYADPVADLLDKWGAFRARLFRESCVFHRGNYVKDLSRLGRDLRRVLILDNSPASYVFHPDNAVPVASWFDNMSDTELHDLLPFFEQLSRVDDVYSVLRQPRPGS

[24] = target: 72 kDa type IV collagenase (Homo sapiens, UniProt P08253); experiment: Dose Response validation of uHTS RPN11 inhibitor hits using a MMP-2 Fluorescence assay.; type: functional
Sequence of 72 kDa type IV collagenase (P08253 whole entry): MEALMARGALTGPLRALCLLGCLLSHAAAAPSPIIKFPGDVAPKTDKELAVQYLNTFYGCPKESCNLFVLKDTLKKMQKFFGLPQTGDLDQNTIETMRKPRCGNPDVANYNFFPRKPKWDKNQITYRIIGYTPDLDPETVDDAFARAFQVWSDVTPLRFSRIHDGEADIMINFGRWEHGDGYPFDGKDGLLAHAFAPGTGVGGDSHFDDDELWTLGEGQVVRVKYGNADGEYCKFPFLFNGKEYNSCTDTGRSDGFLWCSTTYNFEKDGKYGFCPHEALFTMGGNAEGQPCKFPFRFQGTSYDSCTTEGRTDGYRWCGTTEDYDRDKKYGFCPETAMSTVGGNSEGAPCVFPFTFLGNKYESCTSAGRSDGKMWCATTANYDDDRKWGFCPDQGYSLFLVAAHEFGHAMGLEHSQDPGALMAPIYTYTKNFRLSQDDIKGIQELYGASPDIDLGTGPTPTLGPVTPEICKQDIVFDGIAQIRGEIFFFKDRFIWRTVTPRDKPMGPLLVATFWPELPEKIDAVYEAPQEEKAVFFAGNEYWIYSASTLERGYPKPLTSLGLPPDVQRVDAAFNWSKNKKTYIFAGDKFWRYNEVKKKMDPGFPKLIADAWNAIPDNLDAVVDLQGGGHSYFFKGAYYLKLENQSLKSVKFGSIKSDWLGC

Sequence of Melanocortin receptor 4 (P32245 whole entry): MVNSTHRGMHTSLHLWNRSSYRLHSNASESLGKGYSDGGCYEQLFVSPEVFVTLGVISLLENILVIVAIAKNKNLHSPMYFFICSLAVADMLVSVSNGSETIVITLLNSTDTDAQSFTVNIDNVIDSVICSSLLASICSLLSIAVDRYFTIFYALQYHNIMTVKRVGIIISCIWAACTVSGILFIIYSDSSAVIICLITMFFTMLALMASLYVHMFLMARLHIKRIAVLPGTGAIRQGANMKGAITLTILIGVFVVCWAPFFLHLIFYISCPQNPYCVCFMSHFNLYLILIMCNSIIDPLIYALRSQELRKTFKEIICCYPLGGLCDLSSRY
Sequence of Mitogen-activated protein kinase kinase kinase kinase 4 (O95819 whole entry): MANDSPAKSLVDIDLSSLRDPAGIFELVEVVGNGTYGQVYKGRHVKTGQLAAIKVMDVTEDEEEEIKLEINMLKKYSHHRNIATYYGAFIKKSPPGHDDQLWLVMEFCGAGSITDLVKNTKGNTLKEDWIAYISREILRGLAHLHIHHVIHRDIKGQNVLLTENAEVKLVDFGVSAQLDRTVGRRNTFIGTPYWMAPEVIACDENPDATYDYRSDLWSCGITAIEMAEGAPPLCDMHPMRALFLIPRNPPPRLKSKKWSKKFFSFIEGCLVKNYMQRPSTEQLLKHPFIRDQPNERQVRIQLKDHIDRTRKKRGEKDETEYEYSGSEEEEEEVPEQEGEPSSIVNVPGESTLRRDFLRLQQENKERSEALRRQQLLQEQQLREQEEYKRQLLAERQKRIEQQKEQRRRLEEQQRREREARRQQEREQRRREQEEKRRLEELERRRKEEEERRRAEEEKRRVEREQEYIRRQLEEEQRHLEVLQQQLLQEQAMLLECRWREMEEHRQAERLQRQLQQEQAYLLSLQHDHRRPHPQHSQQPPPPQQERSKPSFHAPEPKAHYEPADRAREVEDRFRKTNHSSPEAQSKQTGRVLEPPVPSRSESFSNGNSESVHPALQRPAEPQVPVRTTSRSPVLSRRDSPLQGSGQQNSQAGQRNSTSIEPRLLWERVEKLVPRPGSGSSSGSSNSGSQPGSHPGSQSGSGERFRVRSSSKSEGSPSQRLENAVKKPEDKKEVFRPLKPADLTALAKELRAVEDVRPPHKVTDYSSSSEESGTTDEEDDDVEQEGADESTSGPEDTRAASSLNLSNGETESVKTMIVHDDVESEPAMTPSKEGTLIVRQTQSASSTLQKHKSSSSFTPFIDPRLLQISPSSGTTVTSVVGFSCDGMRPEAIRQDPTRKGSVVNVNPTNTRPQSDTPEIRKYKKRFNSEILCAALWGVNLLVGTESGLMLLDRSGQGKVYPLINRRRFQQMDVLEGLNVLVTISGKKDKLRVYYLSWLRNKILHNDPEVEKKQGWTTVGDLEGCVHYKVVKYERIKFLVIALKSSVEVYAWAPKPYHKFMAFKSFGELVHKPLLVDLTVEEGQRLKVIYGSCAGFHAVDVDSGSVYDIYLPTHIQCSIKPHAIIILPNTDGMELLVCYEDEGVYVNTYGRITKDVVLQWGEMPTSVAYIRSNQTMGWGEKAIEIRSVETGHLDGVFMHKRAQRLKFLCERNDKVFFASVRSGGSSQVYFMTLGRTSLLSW
Sequence of MAP kinase-interacting serine/threonine-protein kinase 2 (Q9HBH9 whole entry): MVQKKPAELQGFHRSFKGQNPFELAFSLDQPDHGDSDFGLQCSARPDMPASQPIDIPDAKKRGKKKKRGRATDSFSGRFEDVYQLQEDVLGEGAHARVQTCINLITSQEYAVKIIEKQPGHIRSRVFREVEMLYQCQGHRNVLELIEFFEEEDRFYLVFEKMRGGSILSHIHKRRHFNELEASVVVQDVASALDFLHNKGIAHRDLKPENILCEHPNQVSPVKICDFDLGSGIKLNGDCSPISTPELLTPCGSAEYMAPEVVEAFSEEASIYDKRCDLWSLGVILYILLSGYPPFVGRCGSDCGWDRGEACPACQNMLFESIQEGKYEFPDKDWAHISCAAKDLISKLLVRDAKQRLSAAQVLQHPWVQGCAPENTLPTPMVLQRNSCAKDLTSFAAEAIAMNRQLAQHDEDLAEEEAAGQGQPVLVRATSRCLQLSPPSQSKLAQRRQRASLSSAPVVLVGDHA
Sequence of Glycogen synthase kinase-3 beta (P49841 whole entry): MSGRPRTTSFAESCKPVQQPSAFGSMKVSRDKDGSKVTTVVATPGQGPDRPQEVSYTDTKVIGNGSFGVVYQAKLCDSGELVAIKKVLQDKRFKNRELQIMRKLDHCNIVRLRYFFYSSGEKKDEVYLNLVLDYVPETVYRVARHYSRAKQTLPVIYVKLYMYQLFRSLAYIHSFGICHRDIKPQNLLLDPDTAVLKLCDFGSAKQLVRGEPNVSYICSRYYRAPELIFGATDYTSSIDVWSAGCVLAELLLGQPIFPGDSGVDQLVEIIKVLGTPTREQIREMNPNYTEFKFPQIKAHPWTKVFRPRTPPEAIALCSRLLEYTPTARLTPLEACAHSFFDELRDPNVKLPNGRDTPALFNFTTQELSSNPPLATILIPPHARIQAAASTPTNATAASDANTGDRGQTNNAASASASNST
Sequence of Serine/threonine-protein kinase pim-1 (P11309 whole entry): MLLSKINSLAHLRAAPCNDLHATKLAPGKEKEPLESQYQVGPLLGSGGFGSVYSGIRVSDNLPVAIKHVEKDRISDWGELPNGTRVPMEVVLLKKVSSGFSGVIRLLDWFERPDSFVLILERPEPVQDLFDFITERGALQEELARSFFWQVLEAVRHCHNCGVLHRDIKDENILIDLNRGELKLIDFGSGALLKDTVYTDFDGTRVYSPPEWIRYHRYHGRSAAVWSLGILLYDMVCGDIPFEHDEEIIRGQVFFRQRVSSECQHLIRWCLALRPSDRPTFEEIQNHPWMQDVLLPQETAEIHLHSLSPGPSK
Sequence of Cell division cycle 7-related protein kinase (O00311 whole entry): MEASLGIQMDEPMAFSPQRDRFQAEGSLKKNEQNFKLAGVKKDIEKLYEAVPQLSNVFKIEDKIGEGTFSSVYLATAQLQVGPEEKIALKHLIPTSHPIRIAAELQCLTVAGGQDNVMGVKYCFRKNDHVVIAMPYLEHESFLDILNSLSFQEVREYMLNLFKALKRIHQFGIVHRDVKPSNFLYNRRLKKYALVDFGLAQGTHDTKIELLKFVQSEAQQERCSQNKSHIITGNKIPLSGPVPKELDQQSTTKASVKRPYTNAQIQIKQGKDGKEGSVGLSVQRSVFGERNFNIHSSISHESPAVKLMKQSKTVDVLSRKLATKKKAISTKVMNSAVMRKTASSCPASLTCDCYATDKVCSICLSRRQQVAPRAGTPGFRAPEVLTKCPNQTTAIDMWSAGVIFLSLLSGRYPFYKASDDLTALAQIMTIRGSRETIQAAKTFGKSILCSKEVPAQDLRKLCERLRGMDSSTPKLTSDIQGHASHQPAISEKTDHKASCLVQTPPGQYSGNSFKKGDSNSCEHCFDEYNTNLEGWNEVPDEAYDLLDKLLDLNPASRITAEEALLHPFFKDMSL
Sequence of 26S proteasome non-ATPase regulatory subunit 14 (O00487 whole entry, the tested form may be a part): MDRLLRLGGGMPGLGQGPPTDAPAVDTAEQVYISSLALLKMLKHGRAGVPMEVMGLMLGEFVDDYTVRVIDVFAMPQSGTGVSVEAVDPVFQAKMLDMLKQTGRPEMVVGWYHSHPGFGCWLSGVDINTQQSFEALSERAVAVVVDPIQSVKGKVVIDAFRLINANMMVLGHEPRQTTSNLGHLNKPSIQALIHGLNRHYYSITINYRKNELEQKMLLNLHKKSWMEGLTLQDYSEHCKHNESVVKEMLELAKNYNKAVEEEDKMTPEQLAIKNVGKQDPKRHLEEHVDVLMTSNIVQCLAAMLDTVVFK
Sequence of Dual specificity protein kinase CLK4 (Q9HAZ1 whole entry): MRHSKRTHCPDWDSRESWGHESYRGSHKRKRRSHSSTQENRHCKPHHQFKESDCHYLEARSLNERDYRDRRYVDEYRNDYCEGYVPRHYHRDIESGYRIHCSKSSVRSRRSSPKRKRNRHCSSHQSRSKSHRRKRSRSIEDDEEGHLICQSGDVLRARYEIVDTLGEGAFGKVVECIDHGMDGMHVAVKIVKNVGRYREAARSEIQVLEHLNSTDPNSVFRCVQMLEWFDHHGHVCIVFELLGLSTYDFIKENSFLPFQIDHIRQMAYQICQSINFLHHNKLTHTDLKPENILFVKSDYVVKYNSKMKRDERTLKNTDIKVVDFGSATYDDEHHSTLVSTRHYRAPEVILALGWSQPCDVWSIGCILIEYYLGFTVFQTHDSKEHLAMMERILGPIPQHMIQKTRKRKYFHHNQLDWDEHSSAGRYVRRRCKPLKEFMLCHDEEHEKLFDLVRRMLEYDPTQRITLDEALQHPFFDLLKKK

With `CCCCNc1c(-c2ccc(SC(C)CC)cc2)nc2cnccn12` (stereo not drawn) the IC50 [1] was 27.4 µM (inactive), the EC50 [2] was > 54.7 µM (inactive) and the EC50 [3] was > 55.9 µM (inactive). The IC50 [4] was 63.1 µM (active) and the EC50 [5] was > 54.7 µM (inactive).
With `Cc1ccc(S(=O)(=O)NCC(=O)OCc2nnc(-c3ccccc3)o2)cc1` the IC50 [6] was > 64.6 µM (inactive) and the IC50 [7] was > 64.6 µM (inactive).
For `Nc1n[nH]c2ccc(-c3cc(Cc4ccccc4)no3)cc12`, the Ki [8] was > 10 µM (inactive), the Ki [9] was 501 nM (active) and the Ki [10] was 10 nM (active). For the same compound, the Ki [11] was 316 nM (active), the Ki [12] was 1 µM (active) and the Ki [13] was 1.58 µM (active). The Ki [14] was 158 nM (active), the Ki [15] was 6.31 µM (active) and the Ki [16] was 31.6 nM (active).
For `COc1cc2c(cc1NC(=O)COC(=O)CNS(=O)(=O)c1ccc(C)cc1)oc1ccccc12`, the IC50 [6] was > 64.6 µM (inactive) and the IC50 [7] was > 64.6 µM (inactive).
In the case of `CCOc1ccc(C(=O)CC(C(=O)O)c2cn(C)c3ccccc23)cc1` (stereo not drawn), the EC50 [17] is reported as > 100 µM (inactive).
For `O=C(On1c(-c2ccccc2)nc2ccccc2c1=O)c1ccco1`, the EC50 [18] was > 50 µM (active), the IC50 [19] was 8.91 µM (active) and the IC50 [20] was 4.57 µM (active).
With `CCN(CC(=O)Nc1c(F)cccc1F)C(=O)CCc1nc2sc3c(c2c(=O)[nH]1)CCCC3` the IC50 [21] was 85.3 µM (active), the IC50 [22] was 19.9 µM (active) and the IC50 [23] was 4.4 µM (active). For the same compound, the IC50 [24] was > 100 µM (inactive).
In the case of `Cc1cc(NS(=O)(=O)c2ccc(NC(=O)c3ccc(Cl)cc3Cl)cc2)no1`, the IC50 [19] is reported as 4.47 µM (active) and the IC50 [20] is reported as 5.81 µM (active).
